What was measured:
[1] = tested on: A2780 cells; assay: In-vitro cell proliferation assay (SRB, 72 hours); assay type: cell-based; conditions: Homo sapiens, sulforhodamine B (SRB) assay
In short: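 Background from media-only plate subtracted; inhibition relative to DMSO-treated cells, value derived by interpolation between two concentrations.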

[2] = target: T1, Recombinant His-tagged NAMPT (Homo sapiens, UniProt P43490); assay: Biochemical inhibition assay: NAMPT enzymatic reaction, NMN quantified by mass spectrometry; conditions: 33 nM NAMPT, 1 μM NAM, 100 μM PRPP, 2.5 mM ATP, 30 minutes at room temperature; read-out: Biochem IC50
T1 construct: His; host or cells: E. coli
T1 sequence (P43490 whole entry): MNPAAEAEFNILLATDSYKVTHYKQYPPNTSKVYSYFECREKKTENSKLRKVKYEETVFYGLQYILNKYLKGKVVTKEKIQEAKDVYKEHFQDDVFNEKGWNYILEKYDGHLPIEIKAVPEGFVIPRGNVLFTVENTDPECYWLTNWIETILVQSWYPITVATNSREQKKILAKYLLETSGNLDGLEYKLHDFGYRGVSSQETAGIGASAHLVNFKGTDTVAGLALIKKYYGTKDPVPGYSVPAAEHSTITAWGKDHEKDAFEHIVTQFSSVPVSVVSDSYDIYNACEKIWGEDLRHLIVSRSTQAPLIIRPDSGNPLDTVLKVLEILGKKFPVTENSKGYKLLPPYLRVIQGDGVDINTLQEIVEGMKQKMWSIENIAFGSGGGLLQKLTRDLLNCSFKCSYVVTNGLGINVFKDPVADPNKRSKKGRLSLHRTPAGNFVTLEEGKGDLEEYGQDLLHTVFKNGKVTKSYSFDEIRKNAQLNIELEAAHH
In short: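 Reaction 30 min at room temperature with 1 μM NAM, 100 μM PRPP, 2.5 mM ATP (final), quenched with formic acid. NMN quantified by RapidFire electrospray MS, normalized to L-cystathionine; IC50 from percent inhibition versus DMSO.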

With COc1ccc(OC)c(C(=O)N2CCC(CCCCNC(=O)c3cc4cnccc4[nH]3)CC2)c1 [N-(4-{1-[(2,5-dimethoxyphenyl)carbonyl]piperidin-4-yl}butyl)-1H-pyrrolo[3,2-c]pyridine-2-carboxamide] the IC50 [1] was 2.2 nM and the IC50 [2] was 15.5 nM.
COc1ccc(OC)c(C(=O)N2CCC(CCCCNC(=O)c3ccc4nccn4c3)CC2)c1 [N-(4-{1-[(2,5-dimethoxyphenyl)carbonyl]piperidin-4-yl}butyl)imidazo[1,2-a]pyridine-6-carboxamide] showed an IC50 [1] of 1.9 nM and an IC50 [2] of 42.9 nM.
COc1ccc(OC)c(C(=O)N2CCC(CCCCNC(=O)c3cc4ccncc4s3)CC2)c1 [N-(4-{1-[(2,5-dimethoxyphenyl)carbonyl]piperidin-4-yl}butyl)thieno[2,3-c]pyridine-2-carboxamide] showed an IC50 [1] of 2.9 nM and an IC50 [2] of 5.5 nM.
O=C(NCCCCC1CCN(C(=O)c2c(F)cccc2F)CC1)c1cc2cnccc2[nH]1 [N-(4-{1-[(2,6-difluorophenyl)carbonyl]piperidin-4-yl}butyl)-1H-pyrrolo[3,2-c]pyridine-2-carboxamide] showed an IC50 [1] of 1.4 nM and an IC50 [2] of 7.3 nM.
Compound O=C(NCCCCC1CCN(C(=O)c2c(F)cccc2F)CC1)c1ccc2nccn2c1 [N-(4-{1-[(2,6-difluorophenyl)carbonyl]piperidin-4-yl}butyl)imidazo[1,2-a]pyridine-6-carboxamide] has an IC50 [1] of 1.2 nM and an IC50 [2] of 4.7 nM.
Compound O=C(NCCCCC1CCN(C(=O)c2c(F)cccc2F)CC1)c1cc2ccncc2s1 [N-(4-{1-[(2,6-difluorophenyl)carbonyl]piperidin-4-yl}butyl)thieno[2,3-c]pyridine-2-carboxamide] has an IC50 [1] of 0.8 nM and an IC50 [2] of 4.3 nM.
Work on COc1cccc(OC)c1C(=O)N1CCC(CCCCNC(=O)c2cc3cnccc3[nH]2)CC1 [N-(4-{1-[(2,6-dimethoxyphenyl)carbonyl]piperidin-4-yl}butyl)-1H-pyrrolo[3,2-c]pyridine-2-carboxamide] yielded an IC50 [1] of 1.4 nM and an IC50 [2] of 21.5 nM.
With COc1cccc(OC)c1C(=O)N1CCC(CCCCNC(=O)c2ccc3nccn3c2)CC1 [N-(4-{1-[(2,6-dimethoxyphenyl)carbonyl]piperidin-4-yl}butyl)imidazo[1,2-a]pyridine-6-carboxamide] the IC50 [1] was 1 nM and the IC50 [2] was 28.6 nM.
For COc1cccc(OC)c1C(=O)N1CCC(CCCCNC(=O)c2cc3ccncc3s2)CC1 [N-(4-{1-[(2,6-dimethoxyphenyl)carbonyl]piperidin-4-yl}butyl)thieno[2,3-c]pyridine-2-carboxamide], the IC50 [1] was 1.2 nM and the IC50 [2] was 5.6 nM.
CCOc1ccccc1C(=O)N1CCC(CCCCNC(=O)c2cc3cnccc3[nH]2)CC1 [N-(4-{1-[(2-ethoxyphenyl)carbonyl]piperidin-4-yl}butyl)-1H-pyrrolo[3,2-c]pyridine-2-carboxamide] was tested, and the IC50 [1] was 0.5 nM and the IC50 [2] was 30.5 nM.
For CCOc1ccccc1C(=O)N1CCC(CCCCNC(=O)c2ccc3nccn3c2)CC1 [N-(4-{1-[(2-ethoxyphenyl)carbonyl]piperidin-4-yl}butyl)imidazo[1,2-a]pyridine-6-carboxamide], the IC50 [1] was 0.7 nM and the IC50 [2] was 5.2 nM.
In the case of CCOc1ccccc1C(=O)N1CCC(CCCCNC(=O)c2cc3ccncc3s2)CC1 [N-(4-{1-[(2-ethoxyphenyl)carbonyl]piperidin-4-yl}butyl)thieno[2,3-c]pyridine-2-carboxamide], the IC50 [1] is reported as 0.6 nM and the IC50 [2] is reported as 4 nM.
CCOc1ncccc1C(=O)N1CCC(CCCCNC(=O)c2cc3cnccc3[nH]2)CC1 [N-(4-{1-[(2-ethoxypyridin-3-yl)carbonyl]piperidin-4-yl}butyl)-1H-pyrrolo[3,2-c]pyridine-2-carboxamide] gave an IC50 [1] of 0.6 nM and an IC50 [2] of 20.6 nM.
CCOc1ncccc1C(=O)N1CCC(CCCCNC(=O)c2ccc3nccn3c2)CC1 [N-(4-{1-[(2-ethoxypyridin-3-yl)carbonyl]piperidin-4-yl}butyl)imidazo[1,2-a]pyridine-6-carboxamide] showed an IC50 [1] of 0.5 nM and an IC50 [2] of 9.2 nM.
Work on Cc1cccc(C(=O)N2CCC(CCCCNC(=O)c3cc4cnccc4[nH]3)CC2)c1F [N-(4-{1-[(2-fluoro-3-methylphenyl)carbonyl]piperidin-4-yl}butyl)-1H-pyrrolo[3,2-c]pyridine-2-carboxamide] yielded an IC50 [1] of 6.9 nM and an IC50 [2] of 47.5 nM.
Cc1cccc(C(=O)N2CCC(CCCCNC(=O)c3ccc4nccn4c3)CC2)c1F [N-(4-{1-[(2-fluoro-3-methylphenyl)carbonyl]piperidin-4-yl}butyl)imidazo[1,2-a]pyridine-6-carboxamide] was tested, and the IC50 [1] was 12.7 nM and the IC50 [2] was 22.6 nM.
Work on O=C(NCCCCC1CCN(C(=O)c2ccccc2F)CC1)c1cc2cnccc2[nH]1 [N-(4-{1-[(2-fluorophenyl)carbonyl]piperidin-4-yl}butyl)-1H-pyrrolo[3,2-c]pyridine-2-carboxamide] yielded an IC50 [1] of 0.5 nM and an IC50 [2] of 7.5 nM.
Work on O=C(NCCCCC1CCN(C(=O)c2ccccc2F)CC1)c1ccc2nccn2c1 [N-(4-{1-[(2-fluorophenyl)carbonyl]piperidin-4-yl}butyl)imidazo[1,2-a]pyridine-6-carboxamide] yielded an IC50 [1] of 0.5 nM and an IC50 [2] of 3.8 nM.
In the case of O=C(NCCCCC1CCN(C(=O)c2ccccc2F)CC1)c1cc2ccncc2s1 [N-(4-{1-[(2-fluorophenyl)carbonyl]piperidin-4-yl}butyl)thieno[2,3-c]pyridine-2-carboxamide], the IC50 [1] is reported as 0.6 nM and the IC50 [2] is reported as 8.8 nM.
With COc1ccccc1C(=O)N1CCC(CCCCNC(=O)c2cc3cnccc3[nH]2)CC1 [N-(4-{1-[(2-methoxyphenyl)carbonyl]piperidin-4-yl}butyl)-1H-pyrrolo[3,2-c]pyridine-2-carboxamide] the IC50 [1] was 1.9 nM and the IC50 [2] was 14.4 nM.
COc1ccccc1C(=O)N1CCC(CCCCNC(=O)c2cc3ccncc3s2)CC1 [N-(4-{1-[(2-methoxyphenyl)carbonyl]piperidin-4-yl}butyl)thieno[2,3-c]pyridine-2-carboxamide] showed an IC50 [1] of 3.3 nM and an IC50 [2] of 7.7 nM.
Compound Cc1nc(C(=O)N2CCC(CCCCNC(=O)c3cc4cnccc4[nH]3)CC2)cs1 [N-(4-{1-[(2-methyl-1,3-thiazol-4-yl)carbonyl]piperidin-4-yl}butyl)-1H-pyrrolo[3,2-c]pyridine-2-carboxamide] has an IC50 [1] of 25 nM and an IC50 [2] of 69.5 nM.
Work on Cc1nc(C(=O)N2CCC(CCCCNC(=O)c3ccc4nccn4c3)CC2)cs1 [N-(4-{1-[(2-methyl-1,3-thiazol-4-yl)carbonyl]piperidin-4-yl}butyl)imidazo[1,2-a]pyridine-6-carboxamide] yielded an IC50 [1] of 61.1 nM and an IC50 [2] of 31.4 nM.
Work on Cc1nc(C(=O)N2CCC(CCCCNC(=O)c3cc4ccncc4s3)CC2)cs1 [N-(4-{1-[(2-methyl-1,3-thiazol-4-yl)carbonyl]piperidin-4-yl}butyl)thieno[2,3-c]pyridine-2-carboxamide] yielded an IC50 [1] of 100 to 1000 nM and an IC50 [2] of 22.4 nM.
Work on Cc1ncccc1C(=O)N1CCC(CCCCNC(=O)c2cc3cnccc3[nH]2)CC1 [N-(4-{1-[(2-methylpyridin-3-yl)carbonyl]piperidin-4-yl}butyl)-1H-pyrrolo[3,2-c]pyridine-2-carboxamide] yielded an IC50 [1] of 1.7 nM and an IC50 [2] of 21.5 nM.
For Cc1ncccc1C(=O)N1CCC(CCCCNC(=O)c2ccc3nccn3c2)CC1 [N-(4-{1-[(2-methylpyridin-3-yl)carbonyl]piperidin-4-yl}butyl)imidazo[1,2-a]pyridine-6-carboxamide], the IC50 [1] was 1.8 nM and the IC50 [2] was 9.8 nM.
O=C(NCCCCC1CCN(C(=O)c2csc(-c3ccccc3)n2)CC1)c1cc2cnccc2[nH]1 [N-(4-{1-[(2-phenyl-1,3-thiazol-4-yl)carbonyl]piperidin-4-yl}butyl)-1H-pyrrolo[3,2-c]pyridine-2-carboxamide] was tested, and the IC50 [1] was 72.5 nM and the IC50 [2] was 110 nM.
Compound O=C(NCCCCC1CCN(C(=O)c2csc(-c3ccccc3)n2)CC1)c1cc2ccncc2s1 [N-(4-{1-[(2-phenyl-1,3-thiazol-4-yl)carbonyl]piperidin-4-yl}butyl)thieno[2,3-c]pyridine-2-carboxamide] has an IC50 [1] of 76.2 nM and an IC50 [2] of 13.1 nM.
In the case of O=C(NCCCCC1CCN(C(=O)c2ccc3c(c2)OCO3)CC1)c1cc2cnccc2[nH]1 [N-(4-{1-[(2H-1,3-benzodioxol-5-yl)carbonyl]piperidin-4-yl}butyl)-1H-pyrrolo[3,2-c]pyridine-2-carboxamide], the IC50 [1] is reported as 14 nM and the IC50 [2] is reported as 78.3 nM.
O=C(NCCCCC1CCN(C(=O)c2ccc3c(c2)OCO3)CC1)c1ccc2nccn2c1 [N-(4-{1-[(2H-1,3-benzodioxol-5-yl)carbonyl]piperidin-4-yl}butyl)imidazo[1,2-a]pyridine-6-carboxamide] was tested, and the IC50 [1] was 29.2 nM and the IC50 [2] was 21.3 nM.
O=C(NCCCCC1CCN(C(=O)c2ccc3c(c2)OCO3)CC1)c1cc2ccncc2s1 [N-(4-{1-[(2H-1,3-benzodioxol-5-yl)carbonyl]piperidin-4-yl}butyl)thieno[2,3-c]pyridine-2-carboxamide] was tested, and the IC50 [1] was 100 to 1000 nM and the IC50 [2] was 21.1 nM.
Compound O=C(NCCCCC1CCN(C(=O)c2ccc(Cl)c(Cl)c2)CC1)c1cc2cnccc2[nH]1 [N-(4-{1-[(3,4-dichlorophenyl)carbonyl]piperidin-4-yl}butyl)-1H-pyrrolo[3,2-c]pyridine-2-carboxamide] has an IC50 [1] of 58 nM and an IC50 [2] of 93 nM.
O=C(NCCCCC1CCN(C(=O)c2ccc(Cl)c(Cl)c2)CC1)c1ccc2nccn2c1 [N-(4-{1-[(3,4-dichlorophenyl)carbonyl]piperidin-4-yl}butyl)imidazo[1,2-a]pyridine-6-carboxamide] showed an IC50 [1] of 100 to 1000 nM and an IC50 [2] of 49 nM.
Work on O=C(NCCCCC1CCN(C(=O)c2ccc(Cl)c(Cl)c2)CC1)c1cc2ccncc2s1 [N-(4-{1-[(3,4-dichlorophenyl)carbonyl]piperidin-4-yl}butyl)thieno[2,3-c]pyridine-2-carboxamide] yielded an IC50 [1] of 100 to 1000 nM and an IC50 [2] of 34.5 nM.
For O=C(NCCCCC1CCN(S(=O)(=O)c2ccc(F)c(F)c2)CC1)c1cc2cnccc2[nH]1 [N-(4-{1-[(3,4-difluorobenzene)sulfonyl]piperidin-4-yl}butyl)-1H-pyrrolo[3,2-c]pyridine-2-carboxamide], the IC50 [1] was 22.8 nM and the IC50 [2] was 34.6 nM.
